Measurements as given in US20260007609A1, “METHOD FOR PRODUCING EXTRACELLULAR VESICLES CONTAINING BIOACTIVE SUBSTANCE” (The University of Tokyo, priority 2022, published 2026).
Entries after “also recorded” stand apart in the source; their conditions may differ.

How the values were obtained:
Assay type in all cases: cell-based
NIH3T3 cells [1] = assay: Immunostaining of ceramide
Description: (§1) As for light microscopic observation, cells were plated on a 35-mm glass-bottomed dish (Matsunami, Japan, #D11130H) that had been pre-coated with poly-L-lysine (1:1,000, Sigma, #P4707) for 1 hour. Immunofluorescence labelling was performed using the antibodies described above. Briefly, cells were incubated with the primary antibody overnight at 4° C., and with the secondary antibody for 1 hour, followed by washing with PBS three times for 5 minutes for each washing. Thereafter, as mentioned above, using a spinning disc confocal microscope (Yokogawa/ZEISS) or an LSM780 confocal microscope equipped with Airyscan, the cells were observed. Three dimensional reconstruction of the cells was performed using Imaris 8 software (Bitplane).
In order to investigate whether nSMase2 activity is influenced by the CID1067700 treatment, NIH3T3 cells were treated with CID1067700 and/or GW4869, and immunostaining of ceramide was then performed (FIG. 6).

[2] = test system: ShhN-EGFP transduced NIH3T3 fibroblasts; assay: In vitro extracellular vesicle release imaging (Shh-EV tracking)
Description: (§2) CID1067700 (#SML0545-5MG) was purchased from Sigma-Aldrich, was solubilized at 40 mM in DMSO, and was added to cells to a final concentration of 40 μM, followed by performing culture for 24 hours. GW4869 (#13127) was purchased from Cayman Chemical, was solubilized at 5 mM in DMSO, and was added to cells to a final concentration of 1.25 μM, followed by performing culture for 24 hours. TAS116 (#HY-15785) was purchased from MedChemExpress, was solubilized at 1 mM in DMSO and was added to cells to a final concentration of 0.5 μM, followed by performing culture for 48 hours.
In order to monitor the Brownian motion of Shh extracellular particles, NIH3T3 cells were plated at 1×10^4 cells/well onto an 8-well LabTek II Chamber #1.5 German Coverglass System pre-coated with poly-L-lysine. On the 3rd day of the culture, an adenoviral Shh-N-EGFP expression vector was introduced into the NIH3T3 cells. […] Twenty-four hours after the medium replacement, time-lapse imaging was performed using a spinning disc microscope (Yokogawa/ZEISS) according to the previous report (Tanaka et al., Neuron 90, 1215-1229, 2016) under conditions of 5% CO2 and 37° C. at intervals of 5 seconds. Shh extracellular vesicles with Brownian motion were identified using Imaris 8 software (Bitplane) and were then quantified.
Extracellular vesicles with a large particle diameter, which contain Shh, were visualized by live cell imaging in ShhN-EGFP transduced NIH3T3 fibroblasts treated with CID1067700 (FIG. 5).
These particles were automatically tracked and were identified as extracellular vesicles released from cells under drug (CID1067700, GW4869, or TSA116) addition conditions (FIGS. 5B to 5I). […] However, this increase in the released amount of Shh-EVs due to the CID1067700 treatment disappeared, when the cells were treated with […] TSA116 (Hsp90 inhibitor) for 48 hours or with 1.25 μM GW4869 (nSMase2 inhibitor) for 24 hours (FIG. 5J).

[3] = test system: human mesenchymal stem cells; assay: Nanoparticle tracking analysis (NTA) of culture supernatant of human mesenchymal stem cells
Description: (§3) Human mesenchymal stem cells were plated on three 10-cm cell culture dishes at a density of 5,000 to 6,000 cells/cm^2. Six days after initiation of the culture, per dish, the medium was replaced with the EV Production Basal Medium (FUJIFILM-Wako, #053-09451 and #298-84001), to which 10 mL of supplements had been added (wherein a new medium to be replaced comprised an additive compound, as appropriate). After 24 hours of culture under conditions of 5% CO2 and 37° C., the medium was recovered, and was then centrifuged at 2,000×g for 30 minutes at 4° C. to remove the cell debris. Using a Millipore Amicon Ultra 30,000 MWCO filter (Pall, #MAP030C37), the resultant was centrifuged at 4,000×g for 60 minutes at 4° C., so that it was condensed to 1 ml. To the condensed culture supernatant, 500 μL of Total Exosome Isolation Reagent (Invitrogen, #4478359) was added, and the obtained mixture was then incubated overnight, while mixing it by inverting. The solution that had been mixed overnight was centrifuged at 10,000×g for at least 1 hour, and the extracellular vesicles were harvested as a precipitate, which was then resuspended in 30 μL of PBS. The obtained extracellular vesicles were preserved at 4° C. and were then used in experiments within 1 week.
The above-described culture supernatant was diluted with PBS, and was then analyzed using Zetaview Nanoparticle Tracking Analysis Instrument (Particle Metrix, Germany). The collected data were analyzed and diagrammatized using Prism software (Graphpad, ver. 7 and 9.3.1).
First, human mesenchymal stem cells were cultured for 24 hours in a basic medium for EV production (FUJIFILM-Wako) supplemented with supplements in the presence or absence of CID1067700, and NTA was performed using the culture supernatant after removing impurities by centrifugation (FIG. 3). Using ZetaView system capable of counting extracellular vesicles with a large particle diameter such as approximately 1 μm, the measurement was performed at the “highest” mode. […]

NIH3T3 cells [4] = assay: Fluorescence microscopy of extracellular structures containing Shh and Hsp90; settings: 40 μM, 24 hours, vs DMSO
Description: as §1
The morphological characteristics of Shh-EVs mediated by Hsp90 secreted from CID1067700-treated cells were observed. Both Shh-tagRFP and Hsp90-EGFP were transduced into NIH3T3 cells, and the effects obtained by treating the cells with CID1067700 for 24 hours were compared. The cells were fixed the cells and were then photographed by z-stacks, and a three-dimensional model was then constructed. […] Since these structures were observed after the medium was removed and the cells were fixed, they are thought to interact with the cells as intermediate structures in the process of extracellular vesicle release. […]

[5] = test system: human mesenchymal stem cells; assay: Immunoblotting of extracellular vesicle fraction from culture supernatant of treated human mesenchymal stem cells; settings: 40 μM, 24 hours, compared to DMSO
Description: as §2, §3
Immunoblotting was performed according to the previous report (Yin et al., Neuron 70, 310-325, 2011). […] The bands were detected using an ImageQuant LAS 4000 mini system (GE Healthcare Life Sciences, USA) and were then quantified using ImageJ software. […]

[6] = test system: human mesenchymal stem cells; assay: Transmission electron microscopy of hMSC-EV pellets; settings: TEM histogram of particle sizes larger than 100 nm, vs DMSO
Description: Observation by transmission electron microscopy (TEM) was performed according to previously reported standard methods (Nonaka et al., Cell 95, 829-837, 1998; Takei et al., The Journal of cell biology 131, 1789-1800, 1995). A precipitate of extracellular vesicles was fixed in Half Kalnovsky fixative at 37° C. for 10 min and then at 4° C. overnight, followed by post-fixation with 1% OsO4 (in 0.1 M cacodylate buffer (pH 7.4)) on ice for 1.5 hours. Thereafter, the sample was subjected to electron staining with 1% uranyl acetate for 1 hour, and was then dehydrated using a graded ethanol series. Finally, the dehydrated extracellular vesicle sample was embedded in Quetol-812 (Nisshin EM), was then cut into ultrathin sections, was then electron-stained with uranyl acetate and lead citrate, and was then observed using a JEM2000 microscope at 100 keV, or using a JEM-1400Flash microscope at 80 keV. Next, the extracellular vesicle pellets were observed using TEM (FIG. 4). In addition to conventionally known small (approximately 100 nm in diameter) exosome-like particles, particles with a low electron density (bright) and a diameter of larger than 800 nm were contained in the extracellular vesicle fraction derived from human mesenchymal stem cells treated with CID1067700, and the particles tended to be surrounded with a lipid double layer (FIGS. 4A and 4B).

[7] = culture supernatant, 24 hours treatment, n=4

For `O=C(/C=C/c1ccc(/C=C/C(=O)Nc2ccc(C3=NCCN3)cc2)cc1)Nc1ccc(C2=NCCN2)cc1` [GW4869], the “increase in the expression level of ceramide caused by CID1067700” value (NIH3T3 cells [1]; simultaneous treatment with GW4869 (2.5 μM), 24 hours) was “significantly suppressed; also recorded: offset” and the “increase in the released amount of Shh-EVs due to the CID1067700 treatment” value ([2]; co-treatment with 1.25 μM GW4869 for 24 hours) was “disappeared”.

For `CC1(C)Cc2c(sc(NC(=S)NC(=O)c3ccccc3)c2C(=O)O)CO1` [CID1067700, 2-(benzoylcarbamothioylamino)-5,5-dimethyl-4,7-dihydrothieno[2,3-c]pyran-3-carboxylic acid], the “expression level of ceramide in the cytoplasm” value (NIH3T3 cells [1]; 24 hours of treatment (40 μM), compared to DMSO alone) was “significantly increased”, the “extracellular vesicles with a diameter of 100 to 800 nm per ml” value [3, 7] was 3.2±1.9×10^8 particles/ml and the “extracellular vesicles with a diameter of larger than 800 nm” value [3, 7] was 6.6±2.2×10^7 particles/ml. The “number of extracellular vesicles with a particle diameter of greater than 800 nm” value ([3]; result in words, vs DMSO alone) was “significantly increased”, the “cells with extracellular structures containing Hsp90 and Shh” value (NIH3T3 cells [4]) was “significantly increased” and the “number of Shh-EVs” value ([2]; 24 hours of treatment, compared to control (DMSO treatment)) was “significantly increased”. For the same compound, the “amount of Shh in the extracellular vesicles released from the cells” value [5] was “significantly elevated”, the “amount of the general exosome marker Hsp90 in extracellular vesicles” value [5] was “largely unaltered” and the “amount of the general exosome marker TSG101 in extracellular vesicles” value [5] was “largely unaltered”. For the same compound, the “number of large-size extracellular vesicles” value [6] was “significantly increased”.

With `CCc1cc(C(N)=O)ccc1-n1nc(C(C)C)c2c(-n3cnc(-c4cnn(C)c4)c3)ccnc21` [TSA116] the “increase in the released amount of Shh-EVs due to the CID1067700 treatment” value ([2]; co-treatment with 5 μM TSA116 for 48 hours) was “disappeared”.
